Data reported in ChEMBL document CHEMBL4219073, “Development of selective inhibitors for the treatment of rheumatoid arthritis: (R)-3-(3-(Methyl(7H-pyrrolo[2,3-d]pyrimidin-4-yl)amino)pyrrolidin-1-yl)-3-oxopropanenitrile as a JAK1-selective inhibitor” (Bioorg Med Chem, 2018).

Legend:
[1] = in vivo; conditions: beagle, dog, po, 5 mg/kg
Description: MRT in Beagle dog at 5 mg/kg, po by LC-MS/MS analysis

[2] = in vivo; conditions: Sprague-Dawley, rat, po, 10 mg/kg
[3] = in vivo; conditions: ICR, mouse, iv, 5 mg/kg
Description: Half life in ICR mouse at 5 mg/kg, iv by LC-MS/MS analysis

[4] = in vivo; conditions: ICR, mouse, po, 10 mg/kg
[5] = in vitro; conditions: rat, plasma
Description: Protein binding in rat plasma

[6] = molecular target: CYP2C19 (Homo sapiens, UniProt P33261); assay: in vitro
Chain of CYP2C19 (P33261 whole entry): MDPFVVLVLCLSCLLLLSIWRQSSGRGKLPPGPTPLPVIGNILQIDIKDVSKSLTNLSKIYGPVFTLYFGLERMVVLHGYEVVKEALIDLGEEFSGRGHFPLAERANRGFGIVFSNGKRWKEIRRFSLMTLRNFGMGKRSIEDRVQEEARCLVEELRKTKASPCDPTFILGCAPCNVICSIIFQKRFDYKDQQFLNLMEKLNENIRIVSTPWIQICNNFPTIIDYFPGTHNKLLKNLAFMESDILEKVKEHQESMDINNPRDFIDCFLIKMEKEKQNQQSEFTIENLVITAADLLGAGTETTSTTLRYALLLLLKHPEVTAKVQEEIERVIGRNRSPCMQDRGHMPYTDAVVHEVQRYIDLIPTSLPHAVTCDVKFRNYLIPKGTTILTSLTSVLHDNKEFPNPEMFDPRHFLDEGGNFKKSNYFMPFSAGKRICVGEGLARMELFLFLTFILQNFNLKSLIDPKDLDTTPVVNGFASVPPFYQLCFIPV
Description: Inhibition of CYP2C19 (unknown origin) assessed as residual activity at 10 uM relative to control

[7] = in vivo; conditions: ICR, mouse, po, 10 mg/kg; remark: listed apart in the source
[8] = in vivo; conditions: beagle, dog, po, 5 mg/kg; remark: listed apart in the source
Description: Tmax in Beagle dog at 5 mg/kg, po by LC-MS/MS analysis

[9] = molecular target: CYP2C9 (Homo sapiens, UniProt P11712); assay: in vitro
Chain of CYP2C9 (P11712 whole entry): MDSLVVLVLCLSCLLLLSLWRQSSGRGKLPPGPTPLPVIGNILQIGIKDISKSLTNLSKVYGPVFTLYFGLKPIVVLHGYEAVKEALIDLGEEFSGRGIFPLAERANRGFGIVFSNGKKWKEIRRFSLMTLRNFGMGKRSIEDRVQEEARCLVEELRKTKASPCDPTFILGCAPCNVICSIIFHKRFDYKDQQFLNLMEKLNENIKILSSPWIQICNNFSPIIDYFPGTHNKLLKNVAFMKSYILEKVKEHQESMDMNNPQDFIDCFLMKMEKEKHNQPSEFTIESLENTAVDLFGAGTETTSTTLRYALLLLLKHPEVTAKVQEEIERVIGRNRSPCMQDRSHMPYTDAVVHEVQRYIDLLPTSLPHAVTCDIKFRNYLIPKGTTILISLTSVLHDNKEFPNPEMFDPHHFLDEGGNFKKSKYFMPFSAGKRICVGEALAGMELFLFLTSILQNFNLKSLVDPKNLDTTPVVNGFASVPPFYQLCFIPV
Description: Inhibition of CYP2C9 (unknown origin) assessed as residual activity at 10 uM relative to control

[10] = in vivo; conditions: ICR, mouse, iv, 5 mg/kg; remark: listed apart in the source
Description: MRT in ICR mouse at 5 mg/kg, iv by LC-MS/MS analysis

[11] = in vitro; conditions: human, microsomes
Description: Metabolic stability in human liver microsomes assessed as parent compound remaining after 30 mins

[12] = in vivo; conditions: Sprague-Dawley, rat, iv, 5 mg/kg
Description: AUC (0 to infinity) in Sprague-Dawley rat at 5 mg/kg, iv by LC-MS/MS analysis

[13] = in vivo; conditions: ICR, mouse, iv, 5 mg/kg; remark: listed apart in the source
Description: AUC (0 to t) in ICR mouse at 5 mg/kg, iv by LC-MS/MS analysis

[14] = molecular target: CYP3A4 (Homo sapiens, UniProt P08684); assay: in vitro
Chain of CYP3A4 (P08684 whole entry): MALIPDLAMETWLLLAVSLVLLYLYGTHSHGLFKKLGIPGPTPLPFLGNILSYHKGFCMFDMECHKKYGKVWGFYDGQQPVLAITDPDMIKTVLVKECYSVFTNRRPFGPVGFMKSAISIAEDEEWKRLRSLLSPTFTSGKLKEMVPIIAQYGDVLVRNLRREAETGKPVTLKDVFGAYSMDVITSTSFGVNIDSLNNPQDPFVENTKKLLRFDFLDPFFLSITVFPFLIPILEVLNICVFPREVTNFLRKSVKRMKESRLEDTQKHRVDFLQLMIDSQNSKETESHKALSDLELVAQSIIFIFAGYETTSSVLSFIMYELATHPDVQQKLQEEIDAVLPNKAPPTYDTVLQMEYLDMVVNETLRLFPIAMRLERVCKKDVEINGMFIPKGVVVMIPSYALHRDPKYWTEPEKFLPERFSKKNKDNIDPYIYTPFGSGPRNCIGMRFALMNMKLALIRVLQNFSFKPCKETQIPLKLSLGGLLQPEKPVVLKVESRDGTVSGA
Description: Inhibition of CYP3A4 (unknown origin) assessed as residual activity at 10 uM relative to control

[15] = in vivo; conditions: Sprague-Dawley, rat, iv, 5 mg/kg; remark: listed apart in the source
Description: MRT in Sprague-Dawley rat at 5 mg/kg, iv by LC-MS/MS analysis

[16] = in vivo; conditions: Sprague-Dawley, rat, po, 10 mg/kg; remark: listed apart in the source
[17] = in vitro; conditions: mouse, microsomes
Description: Metabolic stability in mouse liver microsomes assessed as parent compound remaining after 30 mins

[18] = in vivo; conditions: beagle, dog, po, 5 mg/kg; remark: listed apart in the source
Description: AUC (0 to t) in Beagle dog at 5 mg/kg, po by LC-MS/MS analysis

[19] = in vivo; conditions: Sprague-Dawley, rat, iv, 5 mg/kg; remark: listed apart in the source
Description: Half life in Sprague-Dawley rat at 5 mg/kg, iv by LC-MS/MS analysis

[20] = in vitro; conditions: rat, plasma; remark: listed apart in the source
Description: Metabolic stability in rat plasma assessed as parent compound remaining after 120 mins

[21] = in vitro; conditions: human, Caco-2
[22] = in vivo; conditions: ICR, mouse, po, 10 mg/kg; remark: listed apart in the source
[23] = in vivo; conditions: beagle, dog, iv, 3 mg/kg
Description: MRT in Beagle dog at 3 mg/kg, iv by LC-MS/MS analysis

[24] = in vivo; conditions: beagle, dog, iv, 3 mg/kg; remark: listed apart in the source
[25] = in vivo; conditions: Sprague-Dawley, rat, po, 10 mg/kg; remark: listed apart in the source
Description: MRT in Sprague-Dawley rat at 10 mg/kg, po by LC-MS/MS analysis

[26] = in vitro; conditions: human, plasma
Description: Protein binding in human plasma

[27] = in vitro; conditions: human, Caco-2; remark: listed apart in the source
[28] = in vivo; conditions: ICR, mouse, po, 10 mg/kg; remark: listed apart in the source
[29] = in vivo; conditions: beagle, dog, iv, 3 mg/kg; remark: listed apart in the source
Description: Half life in Beagle dog at 3 mg/kg, iv by LC-MS/MS analysis

[30] = in vivo; conditions: beagle, dog, iv, 3 mg/kg; remark: listed apart in the source
[31] = in vivo; conditions: Sprague-Dawley, rat, po, 10 mg/kg; remark: listed apart in the source
Description: Half life in Sprague-Dawley rat at 10 mg/kg, po by LC-MS/MS analysis

[32] = in vitro; conditions: human, plasma; remark: listed apart in the source
Description: Metabolic stability in human plasma assessed as parent compound remaining after 30 mins

[33] = species: Canis familiaris; conditions: dog, in vivo, po, 5 mg/kg
Description: Oral bioavailability in Beagle dog at 5 mg/kg by LC-MS/MS analysis

[34] = in vitro; conditions: rat, microsomes
Description: Metabolic stability in rat liver microsomes assessed as parent compound remaining after 30 mins

[35] = in vitro; conditions: dog, microsomes
Description: Metabolic stability in dog liver microsomes assessed as parent compound remaining after 30 mins

[36] = molecular target: T1, CYP1A2 (Homo sapiens, UniProt P05177); assay: in vitro
T1 sequence (P05177 whole entry): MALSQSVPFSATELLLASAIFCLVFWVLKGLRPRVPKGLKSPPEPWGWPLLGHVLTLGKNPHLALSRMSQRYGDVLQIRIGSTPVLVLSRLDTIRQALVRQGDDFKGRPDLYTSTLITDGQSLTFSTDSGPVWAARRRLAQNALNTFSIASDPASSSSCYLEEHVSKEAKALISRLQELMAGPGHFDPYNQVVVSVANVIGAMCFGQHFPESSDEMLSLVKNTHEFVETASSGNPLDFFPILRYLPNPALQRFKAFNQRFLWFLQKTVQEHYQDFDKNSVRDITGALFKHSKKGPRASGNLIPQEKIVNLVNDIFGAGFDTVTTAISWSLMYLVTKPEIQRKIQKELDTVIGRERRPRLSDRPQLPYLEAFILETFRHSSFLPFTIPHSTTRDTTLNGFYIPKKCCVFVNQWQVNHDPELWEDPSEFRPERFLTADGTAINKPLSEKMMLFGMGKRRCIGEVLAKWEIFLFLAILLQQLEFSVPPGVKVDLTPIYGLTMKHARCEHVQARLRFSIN
Description: Inhibition of CYP1A2 (unknown origin) assessed as residual activity at 10 uM relative to control

[37] = in vivo; conditions: beagle, dog, po, 5 mg/kg; remark: listed apart in the source
Description: Half life in Beagle dog at 5 mg/kg, po by LC-MS/MS analysis

[38] = in vivo; conditions: Sprague-Dawley, rat, po, 10 mg/kg; remark: listed apart in the source
[39] = molecular target: Tyrosine-protein kinase JAK2 (Homo sapiens, UniProt O60674); conditions: read-out: INH
Chain of Tyrosine-protein kinase JAK2 (O60674 whole entry): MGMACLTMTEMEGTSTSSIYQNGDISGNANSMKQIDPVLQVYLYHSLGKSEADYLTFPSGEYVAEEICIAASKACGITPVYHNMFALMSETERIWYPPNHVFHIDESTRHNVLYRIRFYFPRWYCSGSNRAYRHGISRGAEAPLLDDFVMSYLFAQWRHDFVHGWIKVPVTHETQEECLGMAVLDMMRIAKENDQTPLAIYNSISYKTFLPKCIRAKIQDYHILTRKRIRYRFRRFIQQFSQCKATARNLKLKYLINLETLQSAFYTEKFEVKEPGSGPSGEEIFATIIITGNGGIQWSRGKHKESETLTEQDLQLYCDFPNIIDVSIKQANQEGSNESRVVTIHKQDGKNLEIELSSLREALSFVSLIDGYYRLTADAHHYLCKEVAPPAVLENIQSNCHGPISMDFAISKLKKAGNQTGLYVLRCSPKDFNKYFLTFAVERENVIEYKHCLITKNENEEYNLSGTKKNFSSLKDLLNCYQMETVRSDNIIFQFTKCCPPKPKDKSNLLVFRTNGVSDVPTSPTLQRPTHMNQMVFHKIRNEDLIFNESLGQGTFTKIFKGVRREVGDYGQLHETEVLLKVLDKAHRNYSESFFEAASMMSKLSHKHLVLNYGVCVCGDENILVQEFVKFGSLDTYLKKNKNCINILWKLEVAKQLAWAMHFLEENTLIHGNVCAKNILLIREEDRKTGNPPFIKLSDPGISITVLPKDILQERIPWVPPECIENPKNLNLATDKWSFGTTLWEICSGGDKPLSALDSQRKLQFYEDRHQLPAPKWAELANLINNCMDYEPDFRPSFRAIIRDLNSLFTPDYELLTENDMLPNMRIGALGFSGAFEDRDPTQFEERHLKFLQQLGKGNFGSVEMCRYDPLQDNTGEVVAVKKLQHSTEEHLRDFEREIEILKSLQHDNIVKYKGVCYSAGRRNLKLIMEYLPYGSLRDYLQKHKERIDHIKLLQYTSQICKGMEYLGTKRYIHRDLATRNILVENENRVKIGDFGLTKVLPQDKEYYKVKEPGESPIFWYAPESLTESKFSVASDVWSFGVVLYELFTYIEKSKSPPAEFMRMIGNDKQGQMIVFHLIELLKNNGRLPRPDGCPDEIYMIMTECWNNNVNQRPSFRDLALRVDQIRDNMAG
Description: Inhibition of recombinant human JAK2 (808-end residues) at 10 uM in presence of ATP relative to control

[40] = in vivo; conditions: beagle, dog, po, 5 mg/kg; remark: listed apart in the source
Description: Cmax in Beagle dog at 5 mg/kg, po by LC-MS/MS analysis

[41] = species: Mus musculus; conditions: in vivo, po, 10 mg/kg
[42] = in vivo; conditions: Sprague-Dawley, rat, po, 10 mg/kg; remark: listed apart in the source
[43] = in vivo; conditions: ICR, mouse, iv, 5 mg/kg; remark: listed apart in the source
Description: AUC (0 to infinity) in ICR mouse at 5 mg/kg, iv by LC-MS/MS analysis

[44] = in vitro; conditions: human, plasma; remark: listed apart in the source
Description: Metabolic stability in human plasma assessed as parent compound remaining after 120 mins

[45] = in vivo; conditions: beagle, dog, po, 5 mg/kg; remark: listed apart in the source
Description: AUC (0 to infinity) in Beagle dog at 5 mg/kg, po by LC-MS/MS analysis

[46] = in vivo; conditions: ICR, mouse, po, 10 mg/kg; remark: listed apart in the source
Description: MRT in ICR mouse at 10 mg/kg, po by LC-MS/MS analysis

[47] = in vivo; conditions: Sprague-Dawley, rat, iv, 5 mg/kg; remark: listed apart in the source
Description: AUC (0 to t) in Sprague-Dawley rat at 5 mg/kg, iv by LC-MS/MS analysis

[48] = molecular target: Voltage-gated inwardly rectifying potassium channel KCNH2 (Homo sapiens, UniProt Q12809)
Chain of Voltage-gated inwardly rectifying potassium channel KCNH2 (Q12809 whole entry): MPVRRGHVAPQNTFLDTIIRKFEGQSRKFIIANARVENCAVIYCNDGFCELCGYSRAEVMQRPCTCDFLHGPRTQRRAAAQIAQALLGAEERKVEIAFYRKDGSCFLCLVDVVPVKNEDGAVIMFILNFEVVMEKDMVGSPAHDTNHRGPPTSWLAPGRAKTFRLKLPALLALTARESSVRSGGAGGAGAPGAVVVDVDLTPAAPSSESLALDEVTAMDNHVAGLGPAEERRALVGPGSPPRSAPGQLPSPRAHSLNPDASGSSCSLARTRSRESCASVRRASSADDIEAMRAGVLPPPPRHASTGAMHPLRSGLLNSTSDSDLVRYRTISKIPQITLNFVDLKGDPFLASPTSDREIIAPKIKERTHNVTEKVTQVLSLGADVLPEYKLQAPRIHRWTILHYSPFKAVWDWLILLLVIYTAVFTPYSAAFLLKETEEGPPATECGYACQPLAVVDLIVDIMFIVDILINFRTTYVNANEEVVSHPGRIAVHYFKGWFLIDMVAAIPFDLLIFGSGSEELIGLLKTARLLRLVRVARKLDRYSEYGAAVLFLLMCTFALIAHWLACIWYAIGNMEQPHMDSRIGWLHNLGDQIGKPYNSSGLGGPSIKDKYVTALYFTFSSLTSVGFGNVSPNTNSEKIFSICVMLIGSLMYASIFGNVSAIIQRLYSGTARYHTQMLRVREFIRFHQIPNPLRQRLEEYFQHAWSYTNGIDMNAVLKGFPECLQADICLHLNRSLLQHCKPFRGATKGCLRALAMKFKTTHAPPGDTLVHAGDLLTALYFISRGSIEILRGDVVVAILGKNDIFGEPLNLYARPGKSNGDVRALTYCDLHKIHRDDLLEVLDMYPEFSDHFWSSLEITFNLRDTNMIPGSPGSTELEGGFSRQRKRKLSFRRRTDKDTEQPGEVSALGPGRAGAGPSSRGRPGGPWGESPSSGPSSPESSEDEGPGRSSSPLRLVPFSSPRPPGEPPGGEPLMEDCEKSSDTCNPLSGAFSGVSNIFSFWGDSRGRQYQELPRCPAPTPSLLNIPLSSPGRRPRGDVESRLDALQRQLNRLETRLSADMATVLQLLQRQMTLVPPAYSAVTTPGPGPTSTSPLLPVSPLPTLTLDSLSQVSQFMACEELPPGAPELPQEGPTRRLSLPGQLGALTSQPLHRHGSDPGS
Description: Inhibition of human ERG expressed in HEK293 cells by automated patch clamp method

[49] = in vivo; conditions: ICR, mouse, po, 10 mg/kg; remark: listed apart in the source
Description: Half life in ICR mouse at 10 mg/kg, po by LC-MS/MS analysis

[50] = in vitro; conditions: rat, plasma; remark: listed apart in the source
Description: Metabolic stability in rat plasma assessed as parent compound remaining after 30 mins

[51] = molecular target: CYP2D6 (Homo sapiens, UniProt P10635); assay: in vitro
Chain of CYP2D6 (P10635 whole entry): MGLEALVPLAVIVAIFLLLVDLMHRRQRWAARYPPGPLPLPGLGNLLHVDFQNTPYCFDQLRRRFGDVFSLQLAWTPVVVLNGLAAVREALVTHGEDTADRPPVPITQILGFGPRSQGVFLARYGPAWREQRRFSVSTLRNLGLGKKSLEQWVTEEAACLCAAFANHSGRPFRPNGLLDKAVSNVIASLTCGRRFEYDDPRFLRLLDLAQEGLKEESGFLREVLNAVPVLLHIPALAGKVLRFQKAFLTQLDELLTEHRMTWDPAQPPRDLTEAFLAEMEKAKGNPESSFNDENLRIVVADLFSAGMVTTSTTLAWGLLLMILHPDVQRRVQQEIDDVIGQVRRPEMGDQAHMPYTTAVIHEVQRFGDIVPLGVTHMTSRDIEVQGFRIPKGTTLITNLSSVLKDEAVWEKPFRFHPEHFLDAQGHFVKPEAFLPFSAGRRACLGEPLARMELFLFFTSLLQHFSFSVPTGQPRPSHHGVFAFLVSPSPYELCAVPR
Description: Inhibition of CYP2D6 (unknown origin) assessed as residual activity at 10 uM relative to control

Question: For `CN(c1ncnc2[nH]ccc12)[C@@H]1CCN(C(=O)CC#N)C1`, which MRT [1] is on record?
Answer: 3.1 h

Question: And the Tmax [2]?
Answer: 0.3 h

Question: What about the half-life [3] of the same compound?
Answer: 0.9 h

Question: And the Cmax [4]?
Answer: 1 µg/mL

Question: And the fraction unbound [5]?
Answer: 0.823

Question: And the activity at 10 µM [6]?
Answer: 91.8%

Question: And the Tmax [7]?
Answer: 0.3 h

Question: What about the Tmax [8] of the same compound?
Answer: 1.1 h

Question: And the activity at 10 µM [9]?
Answer: > 100%

Question: And the MRT [10]?
Answer: 1.4 h

Question: What about the remaining at 0.5 h [11] of the same compound?
Answer: 97.6%

Question: And the AUC(0-inf) [12]?
Answer: 0.95 µg·h/mL

Question: What about the AUC(0-t) [13] of the same compound?
Answer: 0.51 µg·h/mL

Question: And the activity at 10 µM [14]?
Answer: 98.2%

Question: What about the MRT [15] of the same compound?
Answer: 0.9 h

Question: And the Cmax [16]?
Answer: 1.9 µg/mL

Question: What about the remaining at 0.5 h [17] of the same compound?
Answer: > 100%

Question: What about the AUC(0-t) [18] of the same compound?
Answer: 6.4 µg·h/mL

Question: And the half-life [19]?
Answer: 0.7 h

Question: And the remaining at 2 h [20]?
Answer: > 100%

Question: And the Papp A→B [21]?
Answer: 38 nm/s

Question: And the AUC(0-inf) [22]?
Answer: 2.1 µg·h/mL

Question: What about the MRT [23] of the same compound?
Answer: 2.4 h

Question: And the AUC(0-t) [24]?
Answer: 2.1 µg·h/mL

Question: And the MRT [25]?
Answer: 2.9 h

Question: And the fraction unbound [26]?
Answer: 0.853

Question: And the Papp B→A [27]?
Answer: 77 nm/s

Question: And the AUC(0-t) [28]?
Answer: 1.9 µg·h/mL

Question: What about the half-life [29] of the same compound?
Answer: 1.6 h

Question: What about the AUC(0-inf) [30] of the same compound?
Answer: 2.2 µg·h/mL

Question: What about the half-life [31] of the same compound?
Answer: 2.1 h

Question: And the remaining at 0.5 h [32]?
Answer: 96.3%

Question: What about the F [33] of the same compound?
Answer: 180%

Question: What about the remaining at 0.5 h [34] of the same compound?
Answer: 92.8%

Question: What about the remaining at 0.5 h [35] of the same compound?
Answer: 92.8%

Question: And the activity at 10 µM [36]?
Answer: 89.3%

Question: And the half-life [37]?
Answer: 1.7 h

Question: And the AUC(0-inf) [38]?
Answer: 4.3 µg·h/mL

Question: And the inhibition at 10 µM [39]?
Answer: > 90%

Question: What about the Cmax [40] of the same compound?
Answer: 1.9 µg/mL

Question: And the F [41]?
Answer: 190%

Question: And the AUC(0-t) [42]?
Answer: 4.1 µg·h/mL

Question: And the AUC(0-inf) [43]?
Answer: 0.68 µg·h/mL

Question: What about the remaining at 2 h [44] of the same compound?
Answer: 99.8%

Question: And the AUC(0-inf) [45]?
Answer: 6.5 µg·h/mL

Question: And the MRT [46]?
Answer: 3.1 h

Question: What about the AUC(0-t) [47] of the same compound?
Answer: 0.93 µg·h/mL

Question: What about the IC50 [48] of the same compound?
Answer: 93 µM

Question: What about the half-life [49] of the same compound?
Answer: 2.1 h

Question: What about the remaining at 0.5 h [50] of the same compound?
Answer: > 100%

Question: What about the activity at 10 µM [51] of the same compound?
Answer: > 100%
